In patent US4735651A, “Novel phytotoxic and plant growth regulating oligopeptide” (The United States of America as represented by the …, priority 1986, dated 1988):

Tests used:
[1] = system: lettuce (Lactuca sativa) cv. Northern Lakes seedlings; experiment: Root growth bioassay of germinating lettuce seedlings; assay type: in vivo; conditions: lettuce seedling assay (L), 10^-6 M
Method: (§1) Applicants' preferred embodiments of this invention comprises the incorporation of structural peptide backbone changes which increase conformational constraint, and vary the orientation of amino acid side chains when constrasted with naturally occurring amino acid sequences. […] Rooth growth inhibition/promotion was measured in germinating lettuce (Lactuca sativa) cv. Northern Lakes and curly cress (Lepidium sativum) seedling assays nominally used for screening herbicidal compounds and in a wheat coleoptile assay used for generally screening biological activity. Only compounds exerting measurable biological activities at 1×10^-6 M in concentration in the lettuce and cress assays and 1×10^-3 M in the wheat coleoptile are claimed.
(§2) Aliquots of tested oligopeptide compounds of the type Formulas I-V were dissolved in ethyl acetate. One milliliter aliquots of the samples were pipetted onto a […] filter disk, dried, and placed in a Petri dish. One mL of distilled water was pipetted onto the filter paper and 15 lettuce seeds were uniformly distributed on the surface of the filter paper and allowed to imbibe in the dark at 20° to 25° C. for 24 h. The samples were subsequently placed in a growth chamber under continuous light at 28° C. for 72 h, and the root lengths were measured.
(§3) During the course of these assays, visual assessment of seedling vigor was made in addition to root length measurements. […] Assessment of phytotoxicity was not confined to assessment of the root, but included any organ of the assay species.

[2] = system: curly cress (Lepidium sativum) seedlings; experiment: Root growth bioassay of germinating curly cress seedlings; assay type: in vivo; conditions: curly cress seedling assay (C), 10^-6 M
Method: as §1, §2, §3

[3] = system: lettuce and cress seedlings; experiment: Lettuce and curly cress seedling assays, visual assessment and overall activity (species not split); assay type: in vivo, Lactuca sativa; Lepidium sativum; design: key to Phytotoxicity: +: designated as phytotoxic if they exhibited either chlorosis and/or necrosis of tissues when compared with untreated control plants; conditions: for Root growth inhibitor or promoter activity (in words): 10^-6 M; for Phytotoxicity: visual assessment of chlorosis and/or necrosis, any organ; for Phytotoxic properties observed (in words): visual assessment of seedlings
Method: as §1, §2, §3

[4] = system: lettuce, potato, cucumber, spinach, radish, corn, tobacco; conditions: literature; cited from earlier work
[5] = system: susceptible maize hybrids; conditions: literature; cited from earlier work

For `CCN(C(=O)[C@@H](CC(C)C)NC(=O)OC(C)(C)C)/C(=C\c1ccccc1)C(=O)NCC(=O)OC` [Compound 7, Boc-D-Leu-N(C2 H5)Δ^z Phe-Gly-OMe], the “% Root Growth Inhibitor (inhibition)” value [1] was 50% and the “% Root Growth Inhibitor (inhibition)” value [2] was 80%.

In the case of `COC(=O)CNC(=O)/C(=C/c1ccccc1)N(C)C(=O)[C@H](CC(C)C)NC(=O)OC(C)(C)C` [Compound 8, Boc-Leu-N(CH3)Δ^z Phe-Gly-OMe], the “% Root Growth Inhibitor (inhibition)” value [1] is reported as 60% and the “% Root Growth Inhibitor (inhibition)” value [2] is reported as 50%.

For `COC(=O)CNC(=O)/C(=C/c1ccccc1)NC(=O)[C@@H](C)NC(=O)OC(C)(C)C` [Compound 10, Boc-D-Ala-Δ^z Phe-Gly-OMe], the “% Root Growth Inhibitor (inhibition)” value [1] was 40% and the “% Root Growth Inhibitor (inhibition)” value [2] was 20%.

With `COC(=O)CNC(=O)/C(=C/c1ccccc1)N(C)C(=O)[C@@H](NC(=O)OC(C)(C)C)C(C)C` [Compound 12, Boc-Val-N(CH3)Δ^z Phe-Gly-OMe] the “% Root Growth Inhibitor (inhibition)” value [2] was 85%.

With `CC(C)C[C@@H]1NC(=O)[C@H](C)N(C)C(=O)CNC(=O)/C(=C/c2ccccc2)N(C)C1=O` [Compound 13, cyclo [L-Leucyl-N-methyl-(Z)-dehydrophenylalanyl-glycyl-N-methyl-L-alnyl]] the “Root growth inhibitor or promoter activity (in words)” value [3] was “Not active as a inhibitor”, the “Root growth inhibitor or promoter activity (in words)” value ([3]; listed as tentoxin) was “none of the plant growth inhibiting or promoting properties” and the Phytotoxicity [3] was “+”. For the same compound, the “Phytotoxic properties observed (in words)” value [3] was “induces chlorosis in lettuce seedlings” and the Chlorosis induction [4] was “induces chlorosis in lettuce, potato, cucumber and spinach but not in radish, corn and some species of tobacco”.

In the case of `C[C@@H]1NC(=O)[C@H]2CCCN2C(=O)[C@H](CCCCCC(=O)[C@@H]2CO2)NC(=O)[C@@H](C)NC1=O` [HC toxin], the Root growth inhibition [5] is given as “root growth inhibition of susceptible maize hybrids”.

With “Boc-N(CH3)-Ala-Leu-N(CH3)Δ^z Phe-Gly-OMe [Compound 5]” the “Root growth inhibitor or promoter activity (in words)” value [3] was “active”, the Phytotoxicity [3] was “+” and the “Phytotoxic properties observed (in words)” value [3] was “root growth inhibition leading to early mortality”.
